Source: patent publication US5210089A, “D-rhamnono-1,5-lactone” (Monsanto Company, priority 1992, dated 1993)

Legend:
Assay type in all cases: biochemical
Lysosomal α-fucosidase = molecular target: T1, Lysosomal α-fucosidase (Homo sapiens, UniProt P04066); test: Human liver glycosidase assay, lysosomal α-fucosidase; conditions: for inhibition at 1000 µM: 1 mM compound, human liver, read-out: Inhibition (%) at 1 mM, lysosomal α-fucosidase
T1 construct: human liver extracts; from tissue; host or cells: human liver extracts
T1 sequence (P04066 32-466): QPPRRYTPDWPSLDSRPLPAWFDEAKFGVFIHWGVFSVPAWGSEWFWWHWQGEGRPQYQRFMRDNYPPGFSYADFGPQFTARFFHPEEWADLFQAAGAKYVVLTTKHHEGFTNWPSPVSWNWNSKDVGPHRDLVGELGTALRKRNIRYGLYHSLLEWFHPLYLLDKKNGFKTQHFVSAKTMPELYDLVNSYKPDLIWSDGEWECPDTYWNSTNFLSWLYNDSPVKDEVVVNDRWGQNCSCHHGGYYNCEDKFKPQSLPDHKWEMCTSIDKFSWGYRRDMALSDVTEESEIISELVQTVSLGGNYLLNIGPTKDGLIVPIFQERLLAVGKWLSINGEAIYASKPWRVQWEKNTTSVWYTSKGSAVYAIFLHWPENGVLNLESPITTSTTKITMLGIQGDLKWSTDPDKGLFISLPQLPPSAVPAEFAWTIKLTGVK
Protocol: (§1) Melting points were recorded on a Kofler hot block. Proton nuclear magnetic resonance (δH) spectra were recorded on Varian Gemini 200 (at 200 MHz), Bruker WH 300 (300 MHz), or Bruker AM 500 (500 MHz) spectrometers. Carbon nuclear magnetic resonance (δC) spectra were recorded on a Varian Gemini 200 (50 MHz) or a Bruker 250 (62.9 MHz) spectrometer. Multiplicities were assigned using DEPT sequence on the Gemini and by off resonance decoupling on the Bruker. Spectra run in D2 O were referenced to methanol as an internal standard. All chemical shifts are quoted on the δ-scale. Infrared spectra were recorded on a Perkin-Elmer 297, or on a Perkin-Elmer 781 spectrophotometer. Mass spectra were recorded on VG Micromass 30F, ZAB lF, Masslab 20-250 or Trio-1 GCMS (DB-5 column) spectrometers using desorption chemical ionization (NH3 DCI), electron impact (EI), chemical ionization (NH3 CI) and fast atom bombardment (FAB) techniques, as stated. […] Concentrations were given in g/100 ml. Hydrogenations were run under an atmosphere of hydrogen gas maintained by inflated balloon. Microanalyses were performed by the microanalysis service of the DysonPerrins laboratory, Oxford UK. Thin layer chromatography (t.l.c.) was carried out on aluminum sheets coated with 60F254 silica. Plates were developed using either 5% v/v concentrated sulphuric acid in methanol, 0.2% w/v cerium (IV) sulphate and 5% ammonium molybdate in 2M sulphuric acid and 0.5% ninhydrin in methanol. Flash chromatography was carried out using Sorbsil C60 40/60 silica. Ion-exchange chromatography was performed using Dowex 50W-X8 (H) and Sigma CG 400 (Cl) resins. The resins were washed with 2M hydrochloric acid and 2M sodium hydroxide solution, respectively, and subsequently with distilled water, prior to use. Solvents and commercially available reagents were dried and purified before use according to standard procedures; dichloromethane was refluxed over and distilled from calcium hydride, N,N-dimethylformamide was distilled under reduced pressure from calcium hydride, methanol was distilled from magnesium methoxide, pyridine was distilled from, and stored over, potassium hydroxide and tetrahydrofuran was distilled from a purple solution of sodium benzophenone ketyl immediately before use. Hexane was distilled at 68° C. before use to remove involatile fractions. 2,3-O-Isopropylidene-L-gulono-1,4-lactone (9) [H. Ogura et al., J. Oro. Chem. 37, 72 (1972); G. W. J. Fleet Tetrahedron 45, 319 (1989)]and 2,3-O-isopropylidene-D-gulono-1,4-lactone (15) [L. M. Lerner et al., J. Org. Chem. 33, 1780 (1968)]were prepared from D- and L-Chem. gulonolactones [purchased from the Sigma Chemical Company] as reported previously. See, e.g., Fleet, U.S. Pat. No. 4,861,892. Human liver glycosidases were assayed in the absence and presence [1 mM] of each of the compounds using the appropriate buffered 4-methylumbellifeeryl-glycosides as substrates, as described previously. [B. Winchest et al., Biochem. J. 265, 277 (1990)]. Naringinase was assayed using pnitrophenyl α-L-rhamnoside (1.75 mM) as substrates, according to Romero [C. Romero et al., Anal. Biochem. 149, 566 (1985)].
(§2) The enzymes included human liver glycosidases and naringinase. The latter enzyme is a readily available endo-L-rhamnosidase described by Romero et al., Anal. Biochem. 149, 566 (1985).

[1] = system: α-rhamnosidase (naringinase); test: Naringinase assay with p-nitrophenyl α-L-rhamnoside; conditions: for Inhibition (%) at 1 mM, α-rhamnosidase (naringinase): 1 mM compound, p-nitrophenyl α-L-rhamnoside 1.75 mM
Protocol: as §1, §2

β-mannosidase = molecular target: T2, β-mannosidase (Homo sapiens, UniProt O00462); test: Human liver glycosidase assay, β-mannosidase; design: human liver extracts; from tissue; host or cells: human liver extracts
T2 sequence (O00462 18-879): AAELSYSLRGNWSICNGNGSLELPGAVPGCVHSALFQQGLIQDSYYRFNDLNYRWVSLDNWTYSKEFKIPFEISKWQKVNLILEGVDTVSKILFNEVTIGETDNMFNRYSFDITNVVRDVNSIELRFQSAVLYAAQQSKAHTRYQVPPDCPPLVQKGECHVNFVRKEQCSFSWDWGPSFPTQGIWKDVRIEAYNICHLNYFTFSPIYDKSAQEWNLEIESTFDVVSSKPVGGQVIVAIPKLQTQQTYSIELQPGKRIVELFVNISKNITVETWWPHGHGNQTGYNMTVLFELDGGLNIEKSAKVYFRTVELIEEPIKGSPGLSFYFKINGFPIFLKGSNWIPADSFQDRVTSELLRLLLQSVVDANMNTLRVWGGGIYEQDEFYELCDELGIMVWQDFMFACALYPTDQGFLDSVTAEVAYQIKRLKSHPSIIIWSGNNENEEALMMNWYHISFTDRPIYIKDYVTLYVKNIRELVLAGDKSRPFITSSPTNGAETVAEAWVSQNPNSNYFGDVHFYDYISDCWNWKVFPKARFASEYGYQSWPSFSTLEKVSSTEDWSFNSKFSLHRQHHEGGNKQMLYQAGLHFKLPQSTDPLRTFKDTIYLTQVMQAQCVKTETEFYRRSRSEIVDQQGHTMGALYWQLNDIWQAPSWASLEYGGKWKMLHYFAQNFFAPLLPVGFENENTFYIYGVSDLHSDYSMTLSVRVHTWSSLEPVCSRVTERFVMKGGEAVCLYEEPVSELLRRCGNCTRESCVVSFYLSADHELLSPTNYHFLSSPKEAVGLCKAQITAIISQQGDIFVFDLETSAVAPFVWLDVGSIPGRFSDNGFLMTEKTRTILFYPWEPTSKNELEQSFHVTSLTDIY
Protocol: as §1, with “Chem. 33, 1780 (1968)]were prepared from D- and L-Chem. gulonolactones [purchased from the Sigma Chemical Company] as reported previously. See, e.g., Fleet, U.S. Pat. No. 4,861,892. Human liver glycosidases were assayed in the absence and presence [1 mM] of each of the compounds using the appropriate buffered 4-methylumbellifeeryl-glycosides as substrates, as described previously. [B. Winchest et al., Biochem. J. 265, 277 (1990)]. Naringinase was assayed using pnitrophenyl α-L-rhamnoside (1.75 mM) as substrates, according to Romero [C. Romero et al., Anal. Biochem. 149, 566 (1985)].” left out
as §2

Row | Inhibition of α-fucosidase (in words) (Lysosomal α-fucosidase) | inhibition at 1000 µM (Lysosomal α-fucosidase) [%] | Inhibition of α-rhamnosidase (in words) [1] | Inhibition (%) at 1 mM, α-rhamnosidase (naringinase) [1] [%] | Inhibition of β-mannosidase (in words) (β-mannosidase) | SMILES | IC50 (β-mannosidase) [µM] | inhibition at 1000 µM (β-mannosidase; read-out: Inhibition (%) at 1 mM, β-mannosidase) [%]
1 | does not show any significant inhibition | 0 | not of α-rhamnosidase | 3 | inhibitor of α- and β-mannosidases | C[C@H]1NC(=O)[C@@H](O)[C@@H](O)[C@@H]1O [D-Rhamno-1,5-lactam (6), 6-Deoxy-D-mannono-δ-lactam] |  | 
2 |  | 0 | no inhibitory activity | 0 | no inhibitory activity | C[C@@H]1NC(=O)[C@H](O)[C@H](O)[C@H]1O [L-Rhamno-1,5-lactam (8), 6-Deoxy-L-mannono-δ-lactam] |  | 

Row | SMILES | Inhibition of α-fucosidase (in words) (Lysosomal α-fucosidase) | inhibition at 1000 µM (Lysosomal α-fucosidase) [%] | Inhibition of α-rhamnosidase (in words) [1] | Inhibition (%) at 1 mM, α-rhamnosidase (naringinase) [1] [%] | Inhibition of β-mannosidase (in words) (β-mannosidase) | IC50 (β-mannosidase) [µM] | inhibition at 1000 µM (β-mannosidase; read-out: Inhibition (%) at 1 mM, β-mannosidase) [%]
3 | O=C1N[C@H](CO)[C@@H](O)[C@H](O)[C@@H]1O [Mannono-1,5-lactam (2), D-mannonolactam] |  | 0 |  | 12 |  | 10 | 99
